Results on three compounds are retold here after publication PMC6487070, “Molecular transport through primary human small intestinal monolayers by culture on a collagen scaffold with a gradient of chemical cross-linking” (Journal of Biological Engineering, 2019).

Where two headings read alike, the source gives them in different places.

Type in all cases: in vitro ADME
Data set [1] relates to P-gp. As to the kind of experiment: Bidirectional transport of digoxin across monolayers with and without zosuquidar. The conditions noted are these: human, n = 3, read-out: efflux ratio Papp(B-L)/Papp(L-B). The protocol: (§1) All transport assays were performed by adding LY ([…]) and the drug to the luminal or basal reservoirs of the monolayer (n = 3). Samples were collected after 3 h. LY was added to ensure that monolayer integrity remained intact throughout the assay. Additionally, TEER was measured before and after the assay to further verify that monolayer integrity remained constant throughout the assay. Monolayers with a TEER > 90 Ω cm^2 or 300 Ω cm^2 were used for the gradient cross-linked scaffold and conventional scaffold, respectively. […] Zosuquidar and Ko143 were added to inhibit digoxin transport and prazosin transport, respectively, 2.5 h after addition of the substrate. Samples were collected 30 min after inhibitor addition for a totally assay time of 3 h.
The concentration of the drug in the collected sample was determined using HPLC-triple quadrupole mass spectrometry (LC-MS/MS, PE Sciex API 3000, AB Sciex) with multiple reaction monitoring (MRM). A C-18 analytical column with a linear gradient from 100% water with 1% formic acid to 80% acetonitrile with 1% formic acid over 8 min (0.3 mL/min) was used for the separation. […] Digitoxin was used as an internal standard for digoxin samples. Doxasozin was used an internal standard for prazosin samples. All internal standards were added to samples just prior to LC-MS/MS analysis. […] Sample concentrations were quantified using the standard curve and normalized to the signal of the appropriate internal standard. The drug apparent permeability was calculated according to the following equation: Papp = (V/(A x Ci)) x (Cf/T) where V is the volume of the basal chamber (mL), A is the area of epithelial layer (cm^2), Ci is the initial concentration of the molecule (nM), Cf is the final concentration of the drug, and T is the assay time (s). The average Papp with a single standard deviation is shown (average ± SD). The efflux ratio was calculated according to the following equation: Efflux Ratio = Papp(B-L)/Papp(L-B).

Data set [2] deals with T1, BCRP (Homo sapiens, UniProt Q9UNQ0).
T1 construct: endogenous in cells; host or cells: primary human small intestinal epithelial cell monolayers on a gradient cross-linked or conventional collagen scaffold
T1 sequence (Q9UNQ0 1-655): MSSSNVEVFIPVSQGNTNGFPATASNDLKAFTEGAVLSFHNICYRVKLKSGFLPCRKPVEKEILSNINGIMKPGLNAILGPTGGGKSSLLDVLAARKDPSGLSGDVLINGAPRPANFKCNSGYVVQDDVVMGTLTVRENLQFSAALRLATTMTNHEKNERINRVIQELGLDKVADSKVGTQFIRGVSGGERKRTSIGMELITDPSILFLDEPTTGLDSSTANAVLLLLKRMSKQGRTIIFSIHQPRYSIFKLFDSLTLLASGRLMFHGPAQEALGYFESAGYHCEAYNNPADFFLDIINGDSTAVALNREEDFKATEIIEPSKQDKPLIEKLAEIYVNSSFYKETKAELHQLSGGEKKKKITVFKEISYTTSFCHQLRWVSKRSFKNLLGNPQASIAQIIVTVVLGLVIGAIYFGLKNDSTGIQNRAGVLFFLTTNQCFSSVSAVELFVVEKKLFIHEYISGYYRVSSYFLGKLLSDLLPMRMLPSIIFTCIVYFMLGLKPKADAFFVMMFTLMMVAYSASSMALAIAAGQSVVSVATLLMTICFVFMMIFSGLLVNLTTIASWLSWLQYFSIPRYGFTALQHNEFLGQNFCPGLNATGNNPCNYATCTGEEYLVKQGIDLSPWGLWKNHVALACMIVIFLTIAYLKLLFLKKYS
The data set can be described thus: Bidirectional transport of prazosin across monolayers with and without Ko143. The conditions noted are these: gradient cross-linked scaffold. The procedure:
as §1, with “Samples were collected 30 min after inhibitor addition for a totally assay time of 3 h.” left out
The concentration of the drug in the collected sample was determined using HPLC-triple quadrupole mass spectrometry (LC-MS/MS, PE Sciex API 3000, AB Sciex) with multiple reaction monitoring (MRM). […] Sample concentrations were quantified using the standard curve and normalized to the signal of the appropriate internal standard. The drug apparent permeability was calculated according to the following equation: Papp = (V/(A x Ci)) x (Cf/T) where V is the volume of the basal chamber (mL), A is the area of epithelial layer (cm^2), Ci is the initial concentration of the molecule (nM), Cf is the final concentration of the drug, and T is the assay time (s). […]

For data set [3], the system named is primary human small intestinal epithelial monolayers. As to the kind of experiment: Monolayer integrity: permeability of LY and fluorescein-dextran through small intestinal epithelial monolayers. The conditions noted are these: monolayers on gradient cross-linked scaffold and on conventional scaffold; luminal to basal, 3 h; n = 3. The protocol: Neither LY nor fluorescein-dextran are transported by the intestinal epithelium. The TEER was measured using an EVOM^2 epithelial Volt/Ohm meter (World Precision Instruments, Sarasota, FL). The raw resistance measurements of the monolayers were subtracted from that of the average resistance (n = 3) of the collagen layer without cells and normalized by multiplying the cell culture area of the well to provide a TEER in units of Ω cm^2 [48]. The average TEER (n = 3) with a single standard deviation (SD) is shown (average ± SD). […] The amount of LY (ex: 428 nm, em: 520 nm) and fluorescein-dextran (ex: 490 nm, em: 520 nm) in the basal side was determined by measuring their fluorescence in a microplate reader (Spectramax M5, Molecular Devices Corporation, San Jose, CA). The luminal-to-basal apparent permeability (Papp) were calculated according to the following equation: […] The average Papp with a single standard deviation is shown (average ± SD).

As for `C[C@H]1O[C@@H](O[C@H]2[C@@H](O)C[C@H](O[C@H]3[C@@H](O)C[C@H](O[C@H]4CC[C@@]5(C)[C@H](CC[C@@H]6[C@@H]5C[C@@H](O)[C@]5(C)[C@@H](C7=CC(=O)OC7)CC[C@]65O)C4)O[C@@H]3C)O[C@@H]2C)C[C@H](O)[C@@H]1O` [digoxin], the efflux ratio at 3 h in data set [1] (conventional scaffold, no inhibitor) came out at 2.3; in data set [1] (gradient cross-linked scaffold, no inhibitor) it was 2.7; in data set [1] (with zosuquidar (concentration not stated), conventional scaffold, in the presence of P-gp inhibitor zosuquidar), 1.4; in data set [1] (with zosuquidar (concentration not stated), gradient cross-linked scaffold, in the presence of P-gp inhibitor zosuquidar) it was 1.4.
`COc1cc2nc(N3CCN(C(=O)c4ccco4)CC3)nc(N)c2cc1OC` [prazosin]: the efflux ratio at 3 h in data set [2] (no inhibitor, read-out: efflux ratio Papp(B-L)/Papp(L-B)) was 6.5; in data set [2] (with Ko143 (concentration not stated), with BCRP inhibitor Ko143, read-out: efflux ratio Papp(B-L)/Papp(L-B)) it was 1.7.
On to Lucifer yellow [LY], for which the “permeability through confluent, differentiated monolayers” value in data set [3] was “low”.
